# Results taken from patent US6878690B2, “Compounds and methods” (PharmAxis Pty Ltd., priority 2000, dated 2005).
# “And” between values parts separate entries of the source, which are not always exact repeats. Equal entries are not always repeated.
# Legend:
# [1] = tested on: passively transferred EAE; experiment: Passively transferred EAE induced with encephalitogenic MBP-specific T cell line (Example 23); type: in vivo, Lewis rats; conditions: for clinical scores treated, mean: group mean; for clinical scores treated, mean / clinical scores treated: scale 0 to 5; for clinical scores treated: individual rats, 45 mg/kg/rat/day mini-osmotic pump
# Experimental: In order to study the effect of the agents of the present invention in vivo on a disease caused by T lymphocyte migration into a specific tissue, experiments were performed in the Lewis rat model of passively transferred EAE. Here, myelin basic protein (MBP)-specific T lymphocyte cell lines were generated from the draining lymph nodes of Lewis rats that had been immunised with MBP in Freund's complete adjuvant essentially according to the method of Ben-Nun et al. (1981) as described in Example 8. Thus, in this manner, donor T lymphocytes were generated from female 10 to 12 week old Lewis rats weighing 150 to 200 g. These rats were injected intradermally in a footpad of each hind foot with an emulsion of Guinea pig myelin basic protein (MBP; prepared according to the method of Deibler et al., 1972; incorporated herein by reference) in Freund's complete adjuvant (0.05 ml). The adjuvant emulsion was prepared by emulsifying equal volumes of a mixture of light mineral oil (Sigma) and normal saline containing Guinea pig myelin basic protein (0.5 mg/ml) and Mycobacterium butyricum (4 mg/ml; Difco). Thus, the total dose per rat was 50 micrograms of MBP and 400 micrograms of M. butyricum. Approximately 11 days following injection, the rats were euthanased and the draining lymph nodes (popliteal and inguinal) removed aseptically by blunt dissection and placed into mixed lymphocyte culture medium. This medium was prepared in the normal fashion from Dulbecco's Modified Eagle's Medium (DMEM; GIBCO, Grand Island, N.Y.) supplemented with glucose, folic acid, L-asparagine, sodium bicarbonate, L-glutamine, sodium pyruvate, HEPES, 2-mercaptoethanol (5×10^−5 M), penicillin, streptomycin, neomycin, and 2% fetal calf serum. A single cell suspension was prepared from the lymph nodes in the usual manner by gently pushing the nodes through a stainless steel screen. The cells were washed twice in the culture medium and following this procedure, any red blood cells were lysed in the usual manner by treating with a solution of ammonium chloride, EDTA and sodium hydrogen carbonate (pH 7.3) and the preparation strained (Falcon 2350 cell strainer). The cells were washed again in the lymphocyte culture medium. All cell preparative steps were performed on ice. These cells were cultured asceptically for 72 hours at 37° C. in a humidified atmosphere containing 7.5% carbon dioxide at a concentration of 5 million cells per milliliter in the presence of MBP (0.06 mg/ml). The cells were collected and the lymphoblasts were isolated by centrifugation on a Ficoll (Pharmacia, Uppsala, Sweden) gradient in an identical manner to that described by Ben Nun et al. (1981). The fraction containing ≧90% lymphoblasts was cultured and propagated in Eagle's medium supplemented with 15% of a concanavalin A-stimulated lymphocyte supernatant to provide growth factors, 10% fetal calf serum, nonessential amino acids (Bio-Lab, Jerusalem, Israel); sodium pyruvate, 2-mercapto ethanol and antibiotics without added antigen. The cells were plated in 100 mm petri dishes at a concentration of 0.2 million cells/ml and replated every 3 or 4 days. Prior to transfer into Lewis recipients, the cells were restimulated in the presence of MBP (0.01 mg/ml) and irradiated syngeneic thymocytes for 4 days.
# These cells were highly encephalitogenic sine as few as 500,000 cells were capable of inducing disease when injected into naïve Lewis rats. Thus, in a typical experiment a group of 5 female Lewis rats, approximately 9 weeks old, weighing 110±15 grams were anesthetised with diethyl ether and implanted with mini-osmotic pumps (Alzet 2002, Alza Corp., Palo Alto Calif., USA) containing phosphoric acid mono-(6-propyl-3,4,5-trihydroxy-tetrahydro-pyran-2-ylmethyl) ester mono sodium salt dissolved in normal saline at a concentration that delivered the drug at a rate of 45 mg/kg/rat/day. […]
# [2] = tested on: passively transferred adjuvant arthritis; experiment: Passively transferred adjuvant induced arthritis; type: in vivo, DA rats; conditions: 25 mg/kg/day, end of the one week treatment period, FIG. 1
# Experimental: Male DA rats 8 to 10 week old were immunised with three 100 microliter injections of Complete Freund's Adjuvant (CFA) intradermally at the base of the tail. The CFA was prepared by mixing 8 mg/ml of Mycobacterium butyricum (Difco Laboratories, USA) that had been ground to a fine powder using a mortar and pestle, in 85% light mineral oil (Sigma, USA) and 15% mannide monooleate (Sigma) and emulsifying this suspension, one part in one part saline. Thus, the final emulsion contained 4 mg/ml of M. butyricum.
# Ten days after immunisation the rats were euthanased and the spleens removed aseptically. A single cell suspension was prepared in the usual manner in mixed lymphocyte culture medium (MLC) (Dulbecco's Modified Eagle's Medium (DMEM) plus glucose, folic acid, L-asparagine, sodium pyruvate, HEPES, 2-mercapto ethanol, penicillin, streptomycin, neomycin and 10% fetal calf serum) by pushing the spleens through a stainless steel sieve. The cells were placed in culture in MLC medium with 2 micrograms/ml concanavalin A added such that the lymphocyte concentration was 2 million cells per milliliter. These cells were cultured aseptically at 37° C. in an atmosphere containing 5% carbon dioxide for 72 hours.
# Groups of 4 or 5 DA rats, 6 to 8 weeks of age were anesthetised with diethyl ether and implanted subcutaneously on the flank with Alzet 2002 (2 week delivery) or 2001 (1 week delivery) mini-osmotic pumps (Alza Corp., Palo Alto Calif., USA). One treatment group received phosphoric acid mono-(6-propyl-3,4,5-trihydroxy-tetrahydro-pyran-2-ylmethyl) ester in the one week delivery Alzet 2001 mini-osmotic pumps. The drug was delivered at a dose of 25 mg/kg/day. The control group for this experiment received identical mini-osmotic pumps containing normal saline. In a second experiment another group of DA rats received ethyl (3,4,5-trihydroxy-6-phosphonooxymethyl-tetrahydro-pyran-2-yl)-acetic acid ester in the two week delivery Alzet 2002 mini-osmotic pumps. This drug was delivered at a dose of 37 mg/kg/day. Control animals for this group received saline delivered in identical mini-osmotic pumps. The pumps in each case were implanted subcutaneously on the flank of each animal. […]
# After 5 to 8 days, a characteristic thickening and cutaneous hyperemia of the distal joints of the hind legs became clinically apparent in the saline control animals. Disease severity was evaluated and graded in each group by taking daily measurements of the mediolateral widths of both ankle joints. The data were expressed as the mean of the change (compared with width prior to cell injection) in mediolateral ankle width expressed in millimeters (±standard error of the mean).
structure (smiles),measurement,setting,value
"CCCC1OC(COP(=O)(O)O)C(O)C(O)C1O (stereo not drawn) [phosphoric acid mono-(6-propyl-3,4,5-trihydroxy-tetrahydro-pyran-2-ylmethyl) ester]","clinical scores treated, mean","[1]; day 4, 45 mg/kg/rat/day",0
same,clinical scores treated,[1]; day 4,0
same,"clinical scores treated, mean","[1]; day 5, 45 mg/kg/rat/day",0.6
same,clinical scores treated,"[1]; day 5, 45 mg/kg",1 (3×) and 0 (2×)
same,"clinical scores treated, mean","[1]; day 6, 45 mg/kg/rat/day",1
same,clinical scores treated,"[1]; day 6, 45 mg/kg",2 (2×) and 0 (2×) and 1
same,"clinical scores treated, mean","[1]; day 7, 45 mg/kg/rat/day",0.4
same,clinical scores treated,"[1]; day 7, 45 mg/kg",0 (3×) and 1 (2×)
same,Mean maximum clinical score,"[1]; treated group, 45 mg/kg/rat/day, control group 2.0",clinical score 1.0
same,disease index (DI),"[1]; treated group, 45 mg/kg/rat/day, control group DI 160",DI 40
same,swelling in the affected joints of treated animals,"[2]; one week Alzet 2001 pump subcutaneously, controls severe swelling",little swelling
same,disease status of the treated versus the control animals,[2]; one week Alzet 2001 pump,highly statistically significant difference
